Results from US7179832B2, “Glycogen synthase kinase 3β inhibitor, composition and process for the preparation thereof” (Crystalgenomics, Inc., priority 2003, dated 2007).

Molecular target: GSK-3β (Homo sapiens, UniProt P49841)
Assay: Assay for GSK-3β inhibiting activity (32P-ATP, phospho-CREB peptide substrate, filter paper, CPM)
Assay type: biochemical
Details: GSK-3β inhibiting activity; 100 nM GSK-3β protein, 100 μM phospho-CREB peptide, 100 μM ATP, 30° C. for 1 hour; read-out: IC50
Experimental: Assay for GSK-3β inhibiting activity
First, PCR (polymerase chain reaction) was carried out using human DNA as a template as well as primers which were designed to correspond to the 3′- and 5′ ends of the polynucleotide coding human GSK-3β gene (Genbank Accession No.: L33801). The BamH1/XhoI fragment of the amplified PCR product thus obtained was inserted into the pGex vector between the BamH1 and XhoI sites, and the vector obtained was transformed into E. coli BL21(DE3). The transformed cells thus obtained was incubated in […] (1% Bacto-trypton, 0.5% yeast extract, 1% NaCl) containing ampicillin ([…]) until the optical density at 600 nm reached about 0.5. The cultured mixture was cooled to 18° C. and isopropyl β-D-thiogalacto-pyranoside (IPTG) was added thereto to a final concentration of 0.5 mM. After 16 hours, the resultant was centrifuged at 10,000×g for 10 min, the collected cells were suspended in a buffer solution (30 mM Tris-HCl (pH 7.5), 100 mM NaCl, 5% glycerol, 2 mM DTT) and the cells were disrupted using Sonic Dismembrator (Fisher, U.S.A.) in a ice bath. The resulting solution was centrifuged at 16,000 rpm for 30 minutes. […] The purified GSK-3β protein was diluted in a buffer solution (20 mM HEPES (pH 7.5), 5% glycerol, 2 mM DTT) to a final concentration of 50 mM NaCl and the resulting solution was subjected to mono S column chromatography (eluent: linear gradient from 0M to 1M NaCl buffer) using mono S column (Pharmacia Biotech, U.S.A.) equilibrated in the same buffer solution to obtain GSK-3β protein.
The reaction was stopped by adding 5 μl of 5% phosphoric acid to 25 μl of the resulting solution. The resulting mixture was centrifuged at 15,000 rpm for 10 min, 20 μl of the supernatant was added dropwise to Whatman p81 filter paper, and then, the resulting filter paper was washed with 0.5% phosphate buffer for 10 min. The filter paper was further washed 3 times and the enzymatic activity was determined by examining the extent of phospho-CREB peptide phosphorylation which is represented by the unit of count per minute (CPM), measured with a β-counter (Packard, USA).
The GSK-3β inhibiting activity was then calculated in accordance with the following equation:
[formula] wherein the blank represents a value obtained without the use of the enzyme and the compound of the present invention, and the control, in the absence of the compound of the present invention.

Sequence of GSK-3β (P49841 whole entry): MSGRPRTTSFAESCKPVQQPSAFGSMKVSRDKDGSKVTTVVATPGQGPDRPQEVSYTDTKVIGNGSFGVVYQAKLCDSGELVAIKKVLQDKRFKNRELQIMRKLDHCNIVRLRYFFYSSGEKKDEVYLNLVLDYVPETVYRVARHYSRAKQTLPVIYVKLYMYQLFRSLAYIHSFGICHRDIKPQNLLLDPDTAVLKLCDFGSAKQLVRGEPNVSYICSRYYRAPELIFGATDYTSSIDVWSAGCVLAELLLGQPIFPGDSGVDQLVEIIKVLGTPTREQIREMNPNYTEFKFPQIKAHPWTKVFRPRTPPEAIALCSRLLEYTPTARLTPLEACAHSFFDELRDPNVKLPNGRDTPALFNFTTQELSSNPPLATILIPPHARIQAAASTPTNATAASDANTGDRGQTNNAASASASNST

Compound	IC50 [nM]
O=C(NCCc1ccccc1)c1ccc(O)c2[nH]c(-c3ccc(Cl)cc3)nc12 [Compound 71]	> 1000
O=C(NCCc1ccc([N+](=O)[O-])cc1)c1ccc(O)c2[nH]c(-c3ccc(Cl)cc3)nc12 [Compound 72]	120
Nc1ccc(CCNC(=O)c2ccc(O)c3[nH]c(-c4ccc(Cl)cc4)nc23)cc1 [Compound 73]	> 1000
O=C(NCCc1ccc(O)cc1)c1ccc(O)c2[nH]c(-c3ccc(Cl)cc3)nc12 [Compound 74]	> 1000
CS(=O)(=O)Nc1ccc(CCNC(=O)c2ccc(O)c3nc(-c4ccc(Cl)cc4)[nH]c23)cc1 [Compound 75]	9
Cc1ccc(S(=O)(=O)Nc2ccc(CCNC(=O)c3ccc(O)c4[nH]c(-c5ccc(Cl)cc5)nc34)cc2)cc1 [Compound 76]	50
COc1ccc(CCNC(=O)c2ccc(O)c3[nH]c(-c4ccc(Cl)cc4)nc23)cc1O [Compound 77]	33
O=C(NCCN1CCOCC1)c1ccc(O)c2[nH]c(-c3ccc(Cl)cc3)nc12 [Compound 78]	> 1000
O=C(NCCc1ccc(N2C(=O)c3ccccc3C2=O)cc1)c1ccc(O)c2[nH]c(-c3ccc(Cl)cc3)nc12 [Compound 79]	120
CCS(=O)(=O)Nc1ccc(CCNC(=O)c2ccc(O)c3[nH]c(-c4ccc(Cl)cc4)nc23)cc1 [Compound 80]	70
O=C(NCCNc1ccc([N+](=O)[O-])cn1)c1ccc(O)c2[nH]c(-c3ccc(Cl)cc3)nc12 [Compound 81]	> 1000
O=C(NCCc1ccccn1)c1ccc(O)c2[nH]c(-c3ccc(Cl)cc3)nc12 [Compound 82]	> 1000
O=C(NCCc1c[nH]cn1)c1ccc(O)c2[nH]c(-c3ccc(Cl)cc3)nc12 [Compound 83]	> 1000
CN1CCN(CC(=O)Nc2ccc(CCNC(=O)c3ccc(O)c4[nH]c(-c5ccc(Cl)cc5)nc34)cc2)CC1 [Compound 86]	250
CCN1CCN(CC(=O)Nc2ccc(CCNC(=O)c3ccc(O)c4[nH]c(-c5ccc(Cl)cc5)nc34)cc2)CC1 [Compound 87]	230
CN(C)CC(=O)Nc1ccc(CCNC(=O)c2ccc(O)c3[nH]c(-c4ccc(Cl)cc4)nc23)cc1 [Compound 88]	220
CCN(CC)CC(=O)Nc1ccc(CCNC(=O)c2ccc(O)c3[nH]c(-c4ccc(Cl)cc4)nc23)cc1 [Compound 89]	320
Nc1ccc(CCNC(=O)c2ccc(O)c3[nH]c(-c4ccc(Cl)cc4)nc23)cc1 [Compound 90]	130
O=C(CN1CCOCC1)Nc1ccc(CCNC(=O)c2ccc(O)c3[nH]c(-c4ccc(Cl)cc4)nc23)cc1 [Compound 92]	80
CN(C)c1ccc(CCNC(=O)c2ccc(O)c3[nH]c(-c4ccc(Cl)cc4)nc23)cc1 [Compound 93]	> 1000
O=C(NCCc1ccc(OCCN2CCOCC2)cc1)c1ccc(O)c2[nH]c(-c3ccc(Cl)cc3)nc12 [Compound 94]	> 5000
CN1CCN(CCOc2ccc(CCNC(=O)c3ccc(O)c4[nH]c(-c5ccc(Cl)cc5)nc34)cc2)CC1 [Compound 95]	> 1000
O=C(NCCc1ccccc1O)c1ccc(O)c2[nH]c(-c3ccc(Cl)cc3)nc12 [Compound 96]	22
COc1ccccc1CCNC(=O)c1ccc(O)c2[nH]c(-c3ccc(Cl)cc3)nc12 [Compound 97]	170
O=C(NCCc1cccc(Br)c1)c1ccc(O)c2[nH]c(-c3ccc(Cl)cc3)nc12 [Compound 98]	> 1000
O=C(NCCc1ccc([N+](=O)[O-])cc1)c1ccc(O)c2[nH]c(-c3ccc(Cl)cc3Cl)nc12 [Compound 100]	200
COc1cc(CCNC(=O)c2ccc(O)c3[nH]c(-c4ccc(Cl)cc4Cl)nc23)ccc1O [Compound 101]	> 1000
COc1ccc(CCNC(=O)c2ccc(O)c3[nH]c(-c4ccc(Cl)cc4Cl)nc23)cc1O [Compound 102]	230
NCCNC(=O)c1ccc(O)c2[nH]c(-c3ccc(Cl)cc3Cl)nc12 [Compound 103]	> 5000
O=C(NCCc1ccc(O)cc1)c1ccc(O)c2[nH]c(-c3ccc(Cl)cc3Cl)nc12 [Compound 104]	> 1000
